Reference: article PMC3715397 (Bioorganic & medicinal chemistry, 2013)
Entries after “also recorded” stand apart in the source; their conditions may differ.

Biological target: M. ramosa APAH (Mycoplana ramosa, UniProt Q48935)
Assay: Fluorimetric APAH inhibition assay
Assay type: biochemical
Conditions: for Inhibitory potency against APAH, IC50 range in words: qualitative range stated in text

Sequence of M. ramosa APAH (Q48935 whole entry): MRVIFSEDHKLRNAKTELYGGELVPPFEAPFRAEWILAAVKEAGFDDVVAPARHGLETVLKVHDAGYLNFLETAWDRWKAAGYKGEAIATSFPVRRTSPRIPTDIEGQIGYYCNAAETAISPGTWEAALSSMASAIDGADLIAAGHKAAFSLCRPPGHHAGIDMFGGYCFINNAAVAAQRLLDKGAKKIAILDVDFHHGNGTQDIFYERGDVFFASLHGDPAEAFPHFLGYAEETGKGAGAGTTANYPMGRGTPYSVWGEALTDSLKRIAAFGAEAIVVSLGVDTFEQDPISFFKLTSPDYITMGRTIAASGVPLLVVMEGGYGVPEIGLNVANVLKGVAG

SMILES | Inhibitory potency against APAH, IC50 range in words | IC50
CC(=O)SCCCCCNCCCN.Cl.Cl [VII, S-{5-[(3-aminopropyl)amino]pentyl} thioacetate dihydrochloride] | millimolar range | 
CS(=O)(=O)CCCCCNCCCN.Cl.Cl [IX, N^1-[5-(methylsulfonyl)pentyl]propane-1,3-diamine dihydrochloride] | millimolar range | 
Cl.Cl.NCCCNCCCCCS [VIII, 5-[(3-aminopropyl)amino]pentane-1-thiol dihydrochloride] | mid-micromolar range | 
Cl.Cl.NCCCNCCCCCC(=O)C(F)(F)F [IV, 7-[(3-aminopropyl)amino]-1,1,1-trifluoroheptan-2-one dihydrochloride] | nanomolar range; also recorded: nanomolar inhibitory potency | 38 µM
CC(=O)SCC(=O)CCCCCNCCCN.Cl.Cl [V, 7-{[(3-aminopropyl)amino]-2-oxoheptyl} thioacetate dihydrochloride] | mid-micromolar range | 4000 µM
Cl.Cl.NCCCNCCCCCB(O)O [X, 5-[(3-aminopropyl)amino]pentylboronic acid dihydrochloride] | mid-micromolar range | 
Cl.Cl.NCCCNCCCCCC(=O)O [I, 6-[(3-aminopropyl)amino]hexanoic acid dihydrochloride] | millimolar range | 
Cl.Cl.NCCCNCCCCCC(=O)NO [III, 6-[(3-aminopropyl)amino]-N-hydroxyhexanamide dihydrochloride] | nanomolar range; also recorded: nanomolar inhibitory potency | 
COCC(=O)CCCCCNCCCN.Cl.Cl [VI, 7-[(3-aminopropyl)amino]-1-methoxyheptan-2-one dihydrochloride] | mid-micromolar range | 
CC(=O)CCCCCNCCCN.Cl.Cl [II, 7-[(3-aminopropyl)amino]heptan-2-one dihydrochloride] | mid-micromolar range | 
